# According to ChEMBL document CHEMBL3612007, “Novel inhibitors targeting PPM1D phosphatase potently suppress cancer cell proliferation” (Bioorg Med Chem, 2015):
# Activity calls are given as the source filed them. The calls are words filed in the database; no cut-off is given here.
# How the values were obtained:
# MCF7 [1] = assay: Inhibition of cell proliferation of human MCF7 cells incubated for 24 hrs; type: functional, cell-based; conditions: MCF7, 24 h
# Protein phosphatase 1D = biological target: T1, Protein phosphatase 1D (Homo sapiens, UniProt O15297); assay: Inhibition of His-tagged PPM1D (1 to 420 residues) (unknown origin) expressed in Escherichia coli BL21 (DE3) pLysS cells using Ac-VEPPLS(P)QETFSDLW-NH2 substrate
# T1 sequence (O15297 whole entry): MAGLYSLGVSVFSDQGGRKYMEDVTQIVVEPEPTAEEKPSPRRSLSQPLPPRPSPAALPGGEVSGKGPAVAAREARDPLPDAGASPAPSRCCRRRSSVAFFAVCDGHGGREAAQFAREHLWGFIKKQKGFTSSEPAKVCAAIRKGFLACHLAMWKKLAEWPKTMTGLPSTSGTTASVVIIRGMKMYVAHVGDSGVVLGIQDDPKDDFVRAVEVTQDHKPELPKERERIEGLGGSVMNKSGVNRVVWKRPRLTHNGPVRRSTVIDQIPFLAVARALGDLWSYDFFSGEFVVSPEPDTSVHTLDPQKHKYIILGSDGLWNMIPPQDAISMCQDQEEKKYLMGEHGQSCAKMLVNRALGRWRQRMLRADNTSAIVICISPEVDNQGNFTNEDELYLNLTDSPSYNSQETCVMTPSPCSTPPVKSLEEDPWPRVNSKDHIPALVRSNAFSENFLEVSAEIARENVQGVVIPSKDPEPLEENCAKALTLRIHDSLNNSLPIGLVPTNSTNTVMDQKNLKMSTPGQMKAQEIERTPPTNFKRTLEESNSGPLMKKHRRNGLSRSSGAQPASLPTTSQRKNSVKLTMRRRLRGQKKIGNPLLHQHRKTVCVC
# NCI-H1299 [2] = assay: Inhibition of cell proliferation of human H1299 cells at 5 to 20 incubated for 24 hrs; type: functional, cell-based
# NCI-H1299 [3] = assay: Inhibition of cell proliferation of human H1299 cells overexpressing HA-PPM1D at 5 to 20 incubated for 24 hrs; type: functional, cell-based
# Homo sapiens [4] = species: Homo sapiens; assay: Inhibition of PP2A (unknown origin) at 2 to 10 uM using Ac-TDDE(Nle)T(P)GY(P)VAT-NH2 substrate
# Homo sapiens [5] = species: Homo sapiens; assay: Inhibition of PP1 (unknown origin) at 2 to 10 uM using Ac-WGAKAKKT(P)PKAKK-NH2 substrate
# MCF7 [6] = assay: Effect on PPM1D protein expression in UV irradiated human MCF7 cells by Western blotting method; type: functional, cell-based
# MCF7 [7] = assay: Induction of apoptosis in human MCF7 cells incubated for 24 hrs by Annexin-V staining based flow cytometry; type: functional, cell-based
# MCF7 [8] = assay: Induction of cell cycle arrest in human MCF7 cells assessed as increase in cell accumulation at G2/M phase incubated for 24 hrs by propidium iodide staining based flow cytometry; type: functional
# MCF7 [9] = assay: Induction of cell cycle arrest in human MCF7 cells assessed as increase in cell accumulation at subG1 phase incubated for 24 hrs by propidium iodide staining based flow cytometry; type: functional
# MCF7 [10] = assay: Inhibition of cell proliferation of human MCF7 cells at > 20 uM incubated for 24 hrs; type: functional, cell-based
# [11] = biological target: T2, Protein phosphatase 1A (Homo sapiens) (UniProt P35813); assay: Inhibition of His-tagged PPM1A (unknown origin) at 2 to 10 uM using Ac-TDDE(Nle)T(P)GY(P)VAT-NH2 substrate
# T2 sequence (whole entry): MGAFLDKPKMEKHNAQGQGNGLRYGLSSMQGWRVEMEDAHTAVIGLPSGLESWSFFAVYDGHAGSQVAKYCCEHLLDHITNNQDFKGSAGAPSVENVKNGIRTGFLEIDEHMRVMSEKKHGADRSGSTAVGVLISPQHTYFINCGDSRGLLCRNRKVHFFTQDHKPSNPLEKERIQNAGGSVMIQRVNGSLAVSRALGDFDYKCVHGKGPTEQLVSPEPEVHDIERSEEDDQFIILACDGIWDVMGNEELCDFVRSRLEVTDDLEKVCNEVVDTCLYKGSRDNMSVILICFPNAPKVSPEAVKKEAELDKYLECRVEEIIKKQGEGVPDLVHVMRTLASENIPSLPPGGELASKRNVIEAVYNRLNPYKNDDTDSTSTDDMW
SMILES,IC50 (MCF7 [1]),IC50 (Protein phosphatase 1D),inhibition (NCI-H1299 [2]),inhibition (NCI-H1299 [3]),inhibition (Homo sapiens [4]),inhibition (Homo sapiens [5]),Activity (MCF7 [6]),Activity (MCF7 [7]),Activity (MCF7 [8]),Activity (MCF7 [9]),inhibition (MCF7 [10]),inhibition [11]
CC[Si](CC)(CC)O[C@@H]1C[C@H](C)C[C@@H]2[C@@H]1C[C@H](O[Si](C)(C)C(C)(C)C)[C@@H]1[C@](C)(CO)C[C@H](O)C[C@@]21C,26.9 µM,0.0869 µM,,,,,,,,,,
CC[Si](CC)(CC)O[C@@H]1CCC[C@@H]2[C@@H]1C[C@H](O[Si](C)(C)C(C)(C)C)C[C@@]2(C)C(=O)O,7.4 µM,,inactive,Active,inactive,inactive,inactive,Active,Active,Active,Active,inactive
CC[Si](CC)(CC)O[C@@H]1CCC[C@@H]2[C@@H]1C[C@H](O[Si](C)(C)C(C)(C)C)C[C@@]2(C)CO,36.1 µM,,,,,,,,,,,
Cc1ncc(Cl)cc1NCc1ccc(C(=O)N[C@@H](CC2CCCC2)C(=O)NC2CC2)s1,9.5 µM,0.0863 µM,inactive,inactive,,,,,,,,
